# Source: PubChem BioAssay (NCI)
#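 Cells were grown in 96-well plates and exposed to each compound for 48 hours at five concentrations; endpoints were interpolated linearly between bracketing concentrations, or set to the highest concentration if not reached. TGI is the concentration that stops growth completely.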
# Key:
# Test in all cases: NCI-60 cell line screen, 48 h
# KM12 colon = tested on: KM12 colon
# DU-145 prostate = tested on: DU-145 prostate
# BT-549 breast = tested on: BT-549 breast
# CAKI-1 renal = tested on: CAKI-1 renal
# HOP-92 NSCLC = tested on: HOP-92 NSCLC
# OVCAR-5 ovarian = tested on: OVCAR-5 ovarian
# T-47D breast = tested on: T-47D breast
# A549 NSCLC = tested on: A549 NSCLC
# MCF7 breast = tested on: MCF7 breast
# NCI-H23 lung = tested on: NCI-H23 lung
# EKVX NSCLC = tested on: EKVX NSCLC
# SK-OV-3 ovarian = tested on: SK-OV-3 ovarian
# SF-295 CNS = tested on: SF-295 CNS
# PC-3 prostate = tested on: PC-3 prostate
# HCT-116 colon = tested on: HCT-116 colon
# UO-31 renal = tested on: UO-31 renal
# M14 melanoma = tested on: M14 melanoma
# SK-MEL-2 melanoma = tested on: SK-MEL-2 melanoma
# SK-MEL-5 melanoma = tested on: SK-MEL-5 melanoma
Compound,TGI (KM12 colon) [µM],TGI (DU-145 prostate) [µM],TGI (BT-549 breast) [µM],TGI (CAKI-1 renal) [µM],TGI (HOP-92 NSCLC) [µM],TGI (OVCAR-5 ovarian) [µM],TGI (T-47D breast) [µM],TGI (A549 NSCLC) [µM],TGI (MCF7 breast) [µM],TGI (NCI-H23 lung) [µM],TGI (EKVX NSCLC) [µM],TGI (SK-OV-3 ovarian) [µM],TGI (SF-295 CNS) [µM],TGI (PC-3 prostate) [µM],TGI (HCT-116 colon) [µM],TGI (UO-31 renal) [µM],TGI (M14 melanoma) [µM],TGI (SK-MEL-2 melanoma) [µM],TGI (SK-MEL-5 melanoma) [µM]
NCc1ccc(O)c(O)c1O,49,> 100,34.2,> 46.4,> 96,40.5,71.6,63.2,36.3,> 67.3,> 100,> 100,> 57.7,> 100,30.5,> 100,27.7,57.2,56
COc1cc(/C=C2/CCCc3ccccc3C2=O)cc(OC)c1OC,> 50.1,> 58.3,> 78.5,> 59.5,> 82.2,> 100,> 100,> 100,> 63.9,> 87,> 92.2,> 68.1,> 57.6,> 59.3,> 49.9,> 60.2,> 67.4,> 55,13.6
Clc1ccc(C2ON=C(c3ccccc3)N2C23CC4CC(CC(C4)C2)C3)cc1Cl (configuration not stated),> 10,> 10,> 10,> 10,> 10,> 10,> 10,> 10,> 10,> 10,> 10,> 10,> 10,> 10,> 10,> 10,> 10,> 10,> 10
O=C1CC2(CCN(CC3COc4ccccc4O3)CC2)C(=O)N1N1CCCCCC1 (configuration not stated),,> 100,> 100,> 100,> 100,> 100,> 100,> 100,> 100,> 100,> 100,> 100,> 100,> 100,> 100,> 100,> 100,> 100,> 100
Cn1cc(S(=O)(=O)NC(=O)Nc2ccc(Cl)cc2)c(=O)c2ccc(Cl)cc21,> 100,,> 100,> 100,,> 100,> 100,> 100,> 100,> 100,> 100,> 100,> 100,> 100,> 100,> 100,> 100,> 100,> 100
CCCCCCCCCCCCCCCCC(=O)NCC(=O)NCC(=O)NC(Cc1ccccc1)C(=O)Oc1ccc([N+](=O)[O-])cc1 (configuration not stated),48.8,> 100,34.2,32.2,> 100,57.7,> 100,,> 100,> 100,> 100,,40.4,86.6,32.6,> 100,41.1,> 100,47.4
SCc1ccc(-c2ccc(CS)cc2)cc1,10.1,,6.47,18.5,40.8,27,41.6,39.6,29.3,31.7,54.1,33.2,24.9,34,17.8,37.8,29.8,41.5,31
